Like-named read-outs stand apart in the source and are kept apart here. Marks after values point to notes of the source that are not given here.
Columns and labels:
myelofibrosis [1] = conditions: cited from earlier work
myelofibrosis [2] = assay: SIMPLIFY-1 dynamic and time-to-event analyses of RBC transfusions; format: in vivo, human; conditions: SIMPLIFY-1, 24 week randomized treatment period
Text: The SIMPLIFY-1 (S1) trial, a double-blind, active-controlled Phase 3 study in which 432 patients received randomized treatment with MMB or RUX for 24 weeks was previously reported (Mesa R A, Kiladjian J J, Catalano J V. et al. “Simplify-1: A phase III randomized trial of momelotinib versus ruxolitinib in j anus kinase inhibitor—naïve patients with myelofibrosis”, Journal of Clinical Oncology, 2017; 35:3844-50).
Since transfusion burden is of significant concern to clinicians and patients, to better understand the dynamics of RBC transfusions we further examined the S1 data through statistical models utilizing a variety of novel anemia benefit endpoints including time until transfusion and overall intensity of transfusions across time. The proportions of patients with 0 and 4 transfusions were calculated and time-to-event analyses examining time-to-first and time-to-fifth units transfused also conducted. Since transfusions typically comprise 2 units, the fifth unit transfused represents a de facto third transfusion event. The number of units transfused were also considered to be recurrent events and examined with and without patients' baseline characteristics as covariates. Finally, a mixture model, based on a zero-inflated negative binomial (ZINB) distribution fit to the transfusion data, was employed to compare between the treatment groups the proportions of subjects with zero transfusion burden and the mean transfusion rates.

myelofibrosis [3] = assay: SIMPLIFY-1 Phase 3 trial: transfusion independence and TD to TI conversion; format: in vivo, human; conditions: SIMPLIFY 1
Text: The improved outcome from MMB therapy that results from practicing the subject methods can be manifested as an improvement in one or more clinical endpoints (e.g., as described herein), such as anemia response, in spleen response and/or symptom response. By “anemia response” is meant an increase in the patient's hemoglobin level or a patient who was transfusion dependent becoming transfusion independent. Desirably, a minimum increase in hemoglobin of 0.5 g/dL, such as 1.0 g/dL 1.5 g/dL or 2.0 g/dL lasting a minimum of 8 weeks is achieved, which is the level of improvement specified in the International Working Group (IWG) consensus criteria. However, smaller, but still medically significant, increases in hemoglobin are also considered to be within the term “anemia response”. “Transfusion independence” is an anemia endpoint and refers to a subject who required no RBC transfusions over a 12 week period and had no hemoglobin levels less than 8 g/dL to 8.5 g/dL over the 12 week period. In some embodiments, the 12 week period of transfusion independence is the terminal 12 weeks of a 24 week study period. By red blood cell (RBC) transfusion independence rate at week 24 of a study is meant the proportion of subjects who were transfusion independent at week 24, excluding cases associated with clinically overt bleeding.
(§1) In the SIMPLIFY-1 trial (NCT01969838), the efficacy and safety of MMB versus ruxolitinib (RUX) was studied in patients with myelofibrosis who were naïve to treatment with a JAK inhibitor and a platelet count of ≥50×10^9/L. Patients (N=432) with high risk or intermediate-2 risk or symptomatic intermediate-1 risk myelofibrosis received 24 weeks of treatment with 200 mg MMB once daily or 20 mg RUX twice a day (or per label), after which all patients could receive open-label momelotinib. […] The primary endpoint was a reduction by at least 35% in the spleen volume at 24 weeks compared with baseline.
(§2) FIG. 8A: SIMPLIFY-1 study of MMB in a first line population previously untreated with JAKi. For SIMPLIFY-1, the goal was non-inferiority over ruxolitinib (RUX) (MMB: N=215 subjects, and RUX: N=217 subjects). FIG. 8B: SIMPLIFY-2 study of second line population of anemic or thrombocytopenic subjects previously treated with RUX (red blood cell (RBC) transfusions on RUX=64%. RUX dose adjustment for: thrombocytopenia=21%; anemia/hematoma=35%). For SIMPLIFY-2, the goal was superiority over best available treatment (BAT) (MMB: N=104 subjects, and BAT: N=52 subjects). In both SIMPLIFY-1 and SIMPLIFY: Primary endpoint: >=35% reduction in spleen volume at 24 weeks. Secondary endpoints: Total symptom score (TSS) response at 24 weeks. Effects on RBC transfusion requirements.
(§3) The SIMPLIFY 1 clinical trial data was reanalyzed for subgroups of subjects having particular baseline platelet counts in the MMB versus RUX arms of the study.
(§4) Patient data was analyzed according to the following baseline platelet count (PLT) subgroups and in particular according to the threshold PLT of 150×10^9/L: 1) PLT<50×10^9/L; 2) 50×10^9/L≤PLT<100×10^9/L; 3) 100×10^9/L≤PLT<150×10^9/L. The reanalyzed data is presented in Table 13 (SIMPLIFY 1). Selected data is also illustrated in the following figures.

myelofibrosis [4] = assay: SIMPLIFY-1 Phase 3 trial: safety (anemia, platelet counts, hemoglobin); format: in vivo, human
Protocol: as §1
The mean platelet count for RUX patients is demonstrably lower than the mean platelet count for MMB patients.
The MMB subjects were thus at lower risk of developing thrombocytopenia (e.g., Grade 3 or 4 thrombocytopenia), or of having to undergo undesirable dose reduction because they were able to largely maintain their platelet counts during therapy.

myelofibrosis [5] = assay: SIMPLIFY-1 Phase 3 trial: splenic response rate (SRR); format: in vivo, human; conditions: SIMPLIFY 1, week 24
Protocol: as §1, §2, §3, §4

myelofibrosis [6] = assay: SIMPLIFY-1 Phase 3 trial: total symptom score (TSS) response at week 24; format: in vivo, human; conditions: for TSS response rate: SIMPLIFY 1, week 24
Protocol: as §1, §2, §3, §4

[7] = ITT, platelets 50-100 (subgroup 2)
[8] = ITT, platelets 100-150 (subgroup 3)
[9] = baseline TSS ≥ 6, platelets 50-100 (subgroup 2)
[10] = baseline TSS ≥ 6, platelets 100-150 (subgroup 3)
[11] = baseline TSS ≥ 10, all patients
[12] = baseline TSS ≥ 10, platelets 50-100 (subgroup 2)
[13] = baseline TSS ≥ 10, platelets 100-150 (subgroup 3)

## N#CC[C@H](C1CCCC1)n1cc(-c2ncnc3[nH]ccc23)cn1 [RUX, ruxolitinib, reference compound]
Myelofibrosis [1]; after dose reduction or dose interruption
  median time to recovery of platelet counts above 50×10^9/L: 14 days
Myelofibrosis [1]; patients who developed Grade 3 or 4 thrombocytopenia
  median time to onset of thrombocytopenia: approximately 8 weeks
Myelofibrosis [1]; patients with a platelet count of 100×10^9 to 200×10^9/L before starting ruxolitinib
  frequency of Grade 3 or 4 thrombocytopenia: 17%
Myelofibrosis [1]; patients with an entry platelet count greater than 200×10^9/L
  frequency of Grade 3 or 4 thrombocytopenia: 7%
Myelofibrosis [2]
  Kaplan-Meier estimate of the proportion of patients who did not require any units transfused: 46%
  proportion of patients requiring 4 or fewer units: 62%
Myelofibrosis [3]
  patients with transfusion independence promoted and maintained (TI rate): 49%
Myelofibrosis [3]; ITT, all patients
  Week 24 TI rate: 49%
Myelofibrosis [3]; [7]
  Week 24 TI rate: 39%
Myelofibrosis [3]; [8]
  Week 24 TI rate: 45%*
Myelofibrosis [3]; baseline TSS ≥ 6, all patients
  Week 24 TI rate: 48%
Myelofibrosis [3]; [9]
  Week 24 TI rate: 36%
Myelofibrosis [3]; [10]
  Week 24 TI rate: 41%
Myelofibrosis [3]; [11]
  Week 24 TI rate: 51%
Myelofibrosis [3]; [12]
  Week 24 TI rate: 32%
Myelofibrosis [3]; [13]
  Week 24 TI rate: 45%*
Myelofibrosis [4]; SIMPLIFY 1
  anemia rate: 38%
  ≥Grade 3 anemia rate: 23%
Myelofibrosis [4]; SIMPLIFY 1, 24 week double blind phase, FIGS. 31-33
  platelet counts during treatment: significant reductions in platelet counts from baseline
Myelofibrosis [5]; ITT, all patients
  SRR: 29%
Myelofibrosis [5]; [7]
  SRR: 0%
Myelofibrosis [5]; [8]
  SRR: 6%
Myelofibrosis [5]; baseline TSS ≥ 6, all patients
  SRR: 29%
Myelofibrosis [5]; [9]
  SRR: 0%
Myelofibrosis [5]; [10]
  SRR: 7%
Myelofibrosis [5]; [11]
  SRR: 29%
Myelofibrosis [5]; [12]
  SRR: 0%
Myelofibrosis [5]; [13]
  SRR: 5%
Myelofibrosis [6]; ITT, all patients
  TSS response rate: 41%
Myelofibrosis [6]; [7]
  TSS response rate: 22%
Myelofibrosis [6]; [8]
  TSS response rate: 39%*
Myelofibrosis [6]; baseline TSS ≥ 6, all patients
  TSS response rate: 42%
Myelofibrosis [6]; [9]
  TSS response rate: 23%
Myelofibrosis [6]; [10]
  TSS response rate: 33%
Myelofibrosis [6]; [11]
  TSS response rate: 43%
Myelofibrosis [6]; [12]
  TSS response rate: 21%
Myelofibrosis [6]; [13]
  TSS response rate: 35%
Myelofibrosis [6]; SIMPLIFY-1, overall
  Total Symptom Score (TSS) response: 42.2%
